# Patent US12138242B1, “Controlling neuropathic pain” (Frimline Private Limited, priority 2017, dated 2024)
# Test system: Oxaliplatin induced peripheral neuropathy in rat
# Assay: Cold hyperalgesia method (tail immersion test), oxaliplatin induced peripheral neuropathy
# Format: in vivo, Wistar
# Conditions: for % (average tail immersion time relative to 20.00 of normal control): Table 2, doses of Table 1 p.o.; for % (average tail immersion time relative to 20.00 of normal control) / Duration of tail immersion, AVG / Duration of tail immersion, Animal Mark 1 / Duration of tail immersion, Animal Mark 2 / Duration of tail immersion, Animal Mark 3 / Duration of tail immersion, Animal Mark 4 / Duration of tail immersion, Animal Mark 5 / Duration of tail immersion, Animal Mark 6: rat; for % (average tail immersion time relative to 20.00 of normal control) / Duration of tail immersion, AVG: n=6; for % (Day 4 relative to 20.00) / Tail immersion time, Day 0 / Tail immersion time, Day 4: Table 3, groups named by human effective dose/day; for Duration of tail immersion, AVG / Duration of tail immersion, Animal Mark 1 / Duration of tail immersion, Animal Mark 2 / Duration of tail immersion, Animal Mark 3 / Duration of tail immersion, Animal Mark 4 / Duration of tail immersion, Animal Mark 5 / Duration of tail immersion, Animal Mark 6: p.o. Day 1-3 at doses of Table 1, 24 hrs after oxaliplatin 12 mg/kg i.p., cut-off 20 seconds
# Procedure: Example 21—Animal Study—Screening effect of synergistic combination or composition/formulation comprising PEA and other natural ingredients against Oxaliplatin induced peripheral neuropathy in rat.
# • Species: Rat (Rattus norvegicus); • Strain: Wistar; Sex: Male/Female • No. of animals: 54 Animals (n=6 per group) • Animal House conditions: • Lighting: 12/12 hour light-dark cycle • Temperature: 25±2° C. • Relative Humidity: 30 to 70% • Temperature and relative humidity were recorded Thrice daily.
# EXPERIMENTAL PROCEDURE: In study fifty-four (54) rats, were divided into total nine (09) groups. Group 1 served as the normal control, Group 2 served as the disease control, Group 3, Group 4 and Group 5 served as component (A, B and C), Group 6, Group 7 and Group 8 served as formulation of test drug, while Group 9 served as the Reference standard group. For these studies, the following combinations were used.
# Group-1 received vehicle (0.25% w/v Sodium CMC) orally (p.o.) for three consecutive days (Day 1, 2 & 3). Group-2 to Group-8 received test drugs, while Group 9 received Pregabalin orally (p.o.) on Day-1, Day-2 and Day-3. All treatment groups (Group 2 to 9) were administered with oxaliplatin (12 mg/kg, i.p.) on Day-3 prior to 2 hrs of test drug administration. After 24 hrs of oxaliplatin administration, treated groups as well as the normal control group were assessed using the Cold hyperalgesia method.
# Cold Hyperalgesia method (Tail Immersion Test): In the Tail-immersion test, water was maintained at low (0 to 4-C) temperature. The tail of the rat was immersed in cold water and the duration (time in seconds) of tail immersion was recorded, until the tail was withdrawn from water. The cut-off time of 20 seconds was used. The decrease in tail contact time with cold water was indicative pain whereas prolonged contact time was noted as anti-allodynic effect.
Structure (SMILES),% (average tail immersion time relative to 20.00 of normal control),% (Day 4 relative to 20.00),"Tail immersion time, Day 0","Tail immersion time, Day 4","Duration of tail immersion, AVG","Duration of tail immersion, Animal Mark 1","Duration of tail immersion, Animal Mark 2","Duration of tail immersion, Animal Mark 3","Duration of tail immersion, Animal Mark 4","Duration of tail immersion, Animal Mark 5","Duration of tail immersion, Animal Mark 6"
O=c1c(-c2ccc(O)cc2)coc2cc(O)ccc12 [Daidzein],41.38%,41.38%,20.00,8.28,8.28 s,8.55 s,8.00 s,8.98 s,7.95 s,8.12 s,8.05 s
O=c1c(-c2ccc(O)cc2)coc2cc(O)cc(O)c12 [Genistein],37.58%,37.58%,20.00,7.52,7.52 s,7.68 s,7.15 s,7.23 s,7.68 s,7.68 s,7.68 s
"CCCCCCCCCCCCCCCC(=O)NCCO [PEA, Palmitoylethanolamide]",55.73%,55.73%,20.00,11.15,11.15 s,11.32 s,11.55 s,10.85 s,10.97 s,11.44 s,10.75 s
"CC(C)C[C@H](CN)CC(=O)O [Pregabalin, reference compound]",96.27%,96.27%,20.00,19.25,19.25 s,17.20 s,20.00 s,20.00 s,19.95 s,18.37 s,20.00 s
